# According to article PMC12563520, “Asiatic Acid from Centella asiatica as a Potent EGFR Tyrosine Kinase Inhibitor with Anticancer Activity in NSCLC Cells Harboring Wild-Type and T790M-Mutated EGFR” (Biomolecules, 2025):
# Where two headings read alike, the source gives them in different places.
# Assays:
# [1] = target: T1, EGFR protein in A549 cells (Homo sapiens, UniProt P00533); test: Cellular thermal shift assay (CETSA); type: binding; conditions: A549 cell lysates, 100 μM, 1 hour, heated at 40–60 °C, n = 2
# T1 construct: endogenous in cells; host or cells: A549
# Protocol: Figure S9. The cellular thermal shift assay. The stability of EGFR protein in A549 cells was assessed by treating cell lysates with either 0.2% DMSO or 100 μM asiatic acid for 1 hour. Following treatment, samples were heated at 40–60 °C for 3 minutes, rapidly cooled on ice for 10 minutes, and then centrifuged at 12,000 rpm at 4 °C for 30 minutes.
# The supernatants were analyzed by Western blot, and relative band intensities were plotted against the corresponding heating temperatures. Data are expressed as mean ± […]
# (1 picture or pasted object on this page, not shown here)
# [2] = target: T2, p-EGFR (Tyr1068) in A549 cells (Homo sapiens, UniProt P00533); test: Western blot of p-EGFR, EGF-stimulated A549; type: cell-based; conditions: for p-EGFR expression (fold), Mean: A549, EGF-stimulated (+), vs DMSO (+)
# T2 construct: endogenous in cells; host or cells: A549
# Protocol: (§1) Cells were plated at 200,000 cells/well in a 6-well plate and allowed to adhere for 24 h. They were then treated with the tested compound at varying concentrations for 24 h. For A549 cells, treatment was performed in serum-free medium for 24 h, followed by stimulation with 100 ng/mL human EGF for 10 min prior to harvesting. Cells were harvested by trypsinization, lysed in RIPA buffer [50 mM Tris-HCl (pH 7.4), 150 mM NaCl, 1% NP-40, 1% Na-deoxycholate, and 0.1% SDS] with protease and phosphatase inhibitors, and incubated on ice for 30 min. Lysates were centrifuged, and protein concentration was determined using the Bradford assay. Equal amounts (30 μg) were separated by 10% SDS-PAGE and transferred to a […] membrane (Immobilon®-P, Merck Millipore, Burlington, MA, USA). The membrane was blocked with 5% skim milk in 1X TBST and incubated overnight at 4 °C with primary antibodies (Table S2) diluted 1:1000 in 1% skim milk-TBST or 1% BSA-TBST. After washing, membranes were incubated at room temperature for 1 h with secondary antibodies—goat anti-Rabbit IgG or goat anti-Mouse IgG (Invitrogen, Waltham, MA, USA)—diluted 1:2000. Protein signals were detected using Luminata^TM Crescendo Western HRP Substrate (Merck Millipore) and imaged with an ImageQuant 800 system (GE Healthcare Bio-Sciences, Uppsala, Sweden). The auto exposure mode was selected to automatically adjust the exposure time to prevent image saturation. The detected signal was quantified using Image Studio Lite (version 5.2, LICORbio^TM, Lincoln, NE, USA).
# A549 cells [3] = test: MTT cell viability assay, A549; type: cell-based; conditions: Homo sapiens, 72 h, mean ± SEM (n = 3)
# Protocol: (§2) Cells were seeded in a 96-well plate at 1,500 cells/well and incubated at 37 °C for 24 h. After incubation, the culture medium was replaced with fresh medium containing various concentrations of asiatic acid. Cells treated with 0.8% (v/v) DMSO served as the vehicle control. After 72 h, cells were incubated with 100 μL of MTT solution (0.5 mg/mL in PBS) for 4 h at 37 °C. The solution was then removed, 100 μL of DMSO was added, and the plate was protected from light with gentle agitation for 15 min. Absorbance was recorded at 540 nm using a Sunrise microplate reader (Tecan Group Ltd., Männedorf, Switzerland).
# [4] = tested on: cleaved PARP (Asp214) in A549 cells; test: Western blot of cleaved PARP, A549; type: cell-based, human; conditions: for cleaved PARP expression (fold), Mean: 24 h, vs 0 μM
# Protocol: as §1
# A549 cells [5] = test: Annexin V/PI apoptosis assay by flow cytometry, A549; type: cell-based, human; conditions: 24 h
# Protocol: Cells were plated in a 6-well plate at a density of 200,000 cells/well and allowed to adhere overnight at 37 °C. The following day, cells were treated with increasing concentrations of asiatic acid for 24 h. […] After treatment, cells were harvested by trypsinization and centrifugation. The cell pellets were stained with FITC-conjugated Annexin V (640945; BioLegend, San Diego, CA, USA) and incubated for 30 min at room temperature in the dark. Propidium iodide (PI; P3566; Invitrogen^TM, Waltham, MA, USA) was then added, and apoptotic populations were analyzed using a BD FACSCalibur flow cytometer (BD Biosciences, Heidelberg, Germany).
# wild-type EGFR = target: T3, wild-type EGFR (Homo sapiens, UniProt P00533); test: ADP-Glo kinase assay, wild-type EGFR; type: biochemical; conditions: mean ± SEM (n = 3), read-out: IC50 kinase inhibition, Wild-Type EGFR
# T3 construct: purchased Sigma-Aldrich SRP0239
# [6] = target: fibroblast growth factor receptor (FGFR); test: FGFR kinase inhibition (selectivity); type: biochemical
# [7] = tested on: p-Akt (Ser473) in H1975 cells; test: Western blot of p-Akt, H1975; type: cell-based, human; conditions: for p-Akt expression (fold), Mean: 24 h, vs DMSO
# Protocol: as §1
# [8] = tested on: p-ERK (Thr202/Tyr204) in H1975 cells; test: Western blot of p-ERK, H1975; type: cell-based, human; conditions: for p-ERK expression (fold), Mean: 24 h, vs DMSO
# Protocol: as §1
# [9] = tested on: cleaved PARP (Asp214) in H1975 cells; test: Western blot of cleaved PARP, H1975; type: cell-based, human; conditions: for cleaved PARP expression (fold), Mean: 24 h, vs 0 μM
# Protocol: as §1
# [10] = tested on: p-Akt (Ser473) in A549 cells; test: Western blot of p-Akt, A549; type: cell-based, human; conditions: for p-Akt expression (fold), Mean: 24 h, vs DMSO
# Protocol: as §1
# L858R/T790M EGFR = target: T4, L858R/T790M EGFR (Homo sapiens, UniProt P00533, L858R/T790M); test: ADP-Glo kinase assay, double-mutant EGFR; type: biochemical; conditions: mean ± SEM (n = 3), read-out: IC50 kinase inhibition, L858R/T790M EGFR
# T4 construct: purchased Sigma-Aldrich SRP0242
# Protocol: The EGFR inhibitory activity of the tested compound was measured using the ADP-Glo^TM assay (Promega, WI, USA) according to a previous study [28]. […] For the positive control, 2 μL of DMSO was added in place of the tested compound. For the negative control, the EGFR enzyme was omitted and replaced with 5 μL of 1X kinase buffer. The plate was protected from light and incubated at room temperature for 1 h, followed by the addition of 5 μL ADP-Glo^TM reagent and a further 40-min incubation. To convert ADP to ATP, 10 μL of kinase detection reagent was added, followed by a 30-min incubation under the same conditions. ATP levels were then measured using a Varioskan LUX multimode microplate reader (Thermo Fisher Scientific, Waltham, MA, USA), and percent inhibition was calculated using Equation (1).(1) Inhibition activity %=positive − negative−sample −negative/positive−negative ×100
# The IC50 of each compound was calculated using GraphPad Prism software (version 8.0.2, GraphPad Software, Inc., Boston, MA, USA).
# [11] = target: T5, p-EGFR (Tyr1068) in H1975 cells (Homo sapiens, UniProt P00533, L858R/T790M); test: Western blot of p-EGFR, H1975; type: cell-based; conditions: H1975, 6.25–50 μM, dose-dependent
# T5 construct: endogenous in cells; host or cells: H1975
# Protocol: as §1, with “After washing, membranes were incubated at room temperature for 1 h with secondary antibodies—goat anti-Rabbit IgG or goat anti-Mouse IgG (Invitrogen, Waltham, MA, USA)—diluted 1:2000.” left out, “The auto exposure mode was selected to automatically adjust the exposure time to prevent image saturation.” left out
# [12] = tested on: p-ERK (Thr202/Tyr204) in A549 cells; test: Western blot of p-ERK, A549; type: cell-based, human; conditions: for p-ERK expression (fold), Mean: 24 h, vs DMSO
# Protocol: as §1
# [13] = tested on: BEAS-2B normal lung epithelial cells; test: MTT cell viability assay, BEAS-2B; type: cell-based, human
# Protocol: as §2
# H1975 cells [14] = test: MTT cell viability assay, H1975; type: cell-based; conditions: Homo sapiens, NCI-H1975
# Protocol: as §2
# H1975 cells [15] = test: Annexin V/PI apoptosis assay by flow cytometry, H1975; type: cell-based, human; conditions: 24 h
# Protocol: Cells were plated in a 6-well plate at a density of 200,000 cells/well and allowed to adhere overnight at 37 °C. The following day, cells were treated with increasing concentrations of asiatic acid for 24 h. […] After treatment, cells were harvested by trypsinization and centrifugation. […] Propidium iodide (PI; P3566; Invitrogen^TM, Waltham, MA, USA) was then added, and apoptotic populations were analyzed using a BD FACSCalibur flow cytometer (BD Biosciences, Heidelberg, Germany).
# [16] = A549, 100 μM, listed as AS-PN005
structure (smiles),measurement,setting,value
"C[C@H]1[C@H](C)CC[C@]2(C(=O)O)CC[C@]3(C)C(=CC[C@@H]4[C@@]5(C)C[C@@H](O)[C@H](O)[C@@](C)(CO)[C@@H]5CC[C@]43C)[C@H]12 [Asiatic acid, asiatic acid]",thermal stability of EGFR protein (CETSA),[1],markedly enhanced the stability
same,"EGF-induced EGFR phosphorylation, in words","[2]; A549, 12.5–100 μM, concentration-dependent",significantly inhibited
same,"p-EGFR expression (fold), Mean",[2]; 12.5 μM,0.75 fold
same,"p-EGFR expression (fold), Mean",[2]; 25 μM,0.40 fold
same,"p-EGFR expression (fold), Mean",[2]; 50 μM,0.36 fold
same,"p-EGFR expression (fold), Mean",[2]; 100 μM,0.21 fold
same,IC50,A549 cells [3],64.5 ± 2.49 µM
same,"cleaved PARP expression (fold), Mean","[4]; A549, 25 μM",3.12 fold
same,"cleaved PARP expression (fold), Mean","[4]; A549, 50 μM",4.42 fold
same,"cleaved PARP expression (fold), Mean","[4]; A549, 100 μM",6.86 fold
same,"cleaved PARP (Asp214) levels, in words","[4]; A549, 25–100 μM, p < 0.0001","significant, concentration-dependent increase"
same,increase of apoptotic cell population relative to DMSO-treated group,"A549 cells [5]; A549, 100 μM",approximately threefold
same,IC50,wild-type EGFR,0.035 ± 0.002 nM
same,IC50,[6]; Figure S8,0.471 nM
same,selectivity for EGFR over FGFR,[6]; ratio of kinase IC50 values,approximately 13.5 fold
same,"p-Akt expression (fold), Mean","[7]; H1975, 6.25 μM",0.747 fold
same,"p-Akt expression (fold), Mean","[7]; H1975, 12.5 μM",0.696 fold
same,"p-Akt expression (fold), Mean","[7]; H1975, 25 μM",0.605 fold
same,"p-Akt expression (fold), Mean","[7]; H1975, 50 μM",0.423 fold
same,"p-Akt level, in words","[7]; H1975, 6.25–50 μM, p < 0.0001","significant, dose-dependent decrease"
same,"p-ERK expression (fold), Mean","[8]; H1975, 6.25 μM",0.755 fold
same,"p-ERK expression (fold), Mean","[8]; H1975, 12.5 μM",0.636 fold
same,"p-ERK expression (fold), Mean","[8]; H1975, 25 μM",0.566 fold
same,"p-ERK expression (fold), Mean","[8]; H1975, 50 μM",0.458 fold
same,"p-ERK level, in words","[8]; H1975, 6.25–50 μM, p < 0.0001","significant, dose-dependent decrease"
same,"cleaved PARP expression (fold), Mean","[9]; H1975, 12.5 μM",7.26 fold
same,"cleaved PARP expression (fold), Mean","[9]; H1975, 25 μM",9.99 fold
same,"cleaved PARP expression (fold), Mean","[9]; H1975, 50 μM",14.15 fold
same,"cleaved PARP expression, in words","[9]; H1975, 12.5–50 μM, p < 0.0001",significantly elevated
same,"p-Akt expression (fold), Mean","[10]; A549, 12.5 μM",0.454 fold
same,"p-Akt expression (fold), Mean","[10]; A549, 25 μM",0.393 fold
same,"p-Akt expression (fold), Mean","[10]; A549, 50 μM",0.336 fold
same,"p-Akt expression (fold), Mean","[10]; A549, 100 μM",reducing these proteins more than erlotinib
same,"p-Akt expression (fold), Mean",[10]; [16],0.147 fold
same,"p-Akt levels compared to the vehicle control, in words","[10]; A549, 12.5–100 μM",significantly decreased
same,IC50,L858R/T790M EGFR,0.348 ± 0.055 nM
same,"p-EGFR levels, in words",[11],significantly reduced
same,"p-ERK expression (fold), Mean","[12]; A549, 12.5 μM",0.427 fold
same,"p-ERK expression (fold), Mean","[12]; A549, 25 μM",0.402 fold
same,"p-ERK expression (fold), Mean","[12]; A549, 50 μM",0.294 fold
same,"p-ERK expression (fold), Mean","[12]; A549, 100 μM",reducing these proteins more than erlotinib
same,"p-ERK expression (fold), Mean",[12]; [16],0.103 fold
same,"p-ERK levels compared to the vehicle control, in words","[12]; A549, 12.5–100 μM",significantly decreased
same,IC50,"[13]; Homo sapiens, BEAS-2B, 72 h, mean ± SEM (n = 3)",184 ± 5.38 µM
same,cytotoxicity in BEAS-2B cells,[13]; concentrations ≤100 μM (12.5–100 μM),no notable cytotoxicity
same,IC50,"H1975 cells [14]; H1975, MTT, 72 h, mean ± SEM (n = 3), read-out: IC50 cell viability",36.6 ± 0.86 µM
same,viability at 100 µM,"H1975 cells [14]; H1975, concentrations of ≥100 μM, read-out: cell viability",< 40%
same,increase of apoptotic cell population relative to DMSO-treated group,"H1975 cells [15]; H1975, 50 μM",about twofold
"C#Cc1cccc(Nc2ncnc3cc(OCCOC)c(OCCOC)cc23)c1 [Erlotinib, reference compound]",increase of apoptosis compared to the untreated group,"A549 cells [5]; A549, 10 μM",approximately twofold
C=CC(=O)Nc1cc(Nc2nccc(-c3cn(C)c4ccccc34)n2)c(OC)cc1N(C)CCN(C)C [Osimertinib],viability at 3.125 µM,"H1975 cells [14]; H1975, 3.125 μM, n = 3",61.5%
same,viability at 6.25 µM,"H1975 cells [14]; H1975, 6.25 μM, n = 3",44.8%
same,viability at 12.5 µM,"H1975 cells [14]; H1975, 12.5 μM, n = 3",23.8%
same,viability at 25 µM,"H1975 cells [14]; H1975, 25 μM, n = 3",12.1%
same,viability at 50 µM,"H1975 cells [14]; H1975, 50 μM, n = 3",7.89%
same,viability at 100 µM,"H1975 cells [14]; H1975, 100 μM, n = 3, read-out: Cell viability (%) Mean",0.43%
same,IC50,"H1975 cells [14]; Table S1, n = 3, read-out: IC50 (μM) Mean, H1975 cell viability",4.14 µM
same,increase of apoptosis compared to the untreated group,"H1975 cells [15]; H1975, 5 μM",threefold
